Consider 3 compounds from patent publication US11497212B2, “Substituted thiophenyl uracils, salts thereof and the use thereof as herbicidal agents” (Syngenta Crop Protection AG, priority 2017, dated 2022).

Format in all cases: in vivo
The test system of series [1] is Zea mays. Briefly: Crop compatibility pre-emergence (greenhouse pot trial). To be noted: effect vs untreated controls. From the text:
(§1) Seeds of mono- and dicotyledonous weeds and crop plants were laid out in plastic or organic plant pots and covered with soil. The compounds of the invention formulated in the form of wettable powders (WP) or emulsion concentrates (EC) were then applied to the surface of the covering soil as an aqueous suspension or emulsion with addition of 0.5% additive at a water application rate equivalent to 600 L/ha. After the treatment, the pots were placed in a greenhouse and kept under good growth conditions for the test plants. After about 3 weeks, the efficacy of the preparations was scored visually as a percentage by comparison with untreated controls. For example, 100% efficacy=plants have died, 0% efficacy=like control plants.
Crop compatibilities were also scored correspondingly.
The effects observed are reported here on selected crop plants by comparison with the untreated controls (values in %).

Series [2] concerns Glycine max. As to the kind of experiment: Crop compatibility post-emergence (greenhouse pot trial). To be noted: application rate 5 g/ha. The essentials:
(§2)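 Crop seeds sown in sandy loam and grown in the greenhouse 2 to 3 weeks were treated at the one-leaf stage. WP or EC formulations were sprayed as aqueous suspension/emulsion with 0.5% additive at 600 L/ha. Damage was scored visually about 3 weeks later versus untreated controls (0% = like control, 100% = dead).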

Series [3] deals with Oryza sativa. Described as above. To be noted: application rate 20 g/ha. The essentials:
as §2

Series [4] has as its system Triticum aestivum. The description is as above. The method, boiled down:
as §2

Series [5] concerns Zea mays. The description is as above. The essentials: as §2
Series [6] has as its system Veronica persica. As to the kind of experiment: Herbicidal action post-emergence (greenhouse pot trial). The essentials:
(§3)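 Sowing in sandy loam, then 2–3 weeks of controlled greenhouse growth. Next, one-leaf-stage plants received a foliar spray of the WP- or EC-formulated compound with 0.5% additive (600 L/ha water, application rate of 80 g/ha or below). Finally, after about 3 weeks under optimal conditions, effect was judged by eye against controls.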

For series [7], the system named is Abutilon theophrasti. Described as above. To be noted: scored visually after about 3 weeks vs untreated controls. The essentials: as §3
In series [8] the test system is Amaranthus retroflexus. Described as above. To be noted: scored visually after about 3 weeks vs untreated controls. The method, boiled down:
as §3

The subject of series [9] is Pharbitis purpurea. The description is as above. The essentials:
as §3

The test system of series [10] is Polygonum convolvulus. The description is as above. To be noted: scored visually after about 3 weeks vs untreated controls. The essentials:
as §3

For series [11], the system named is Matricaria inodora. Described as above. To be noted: scored visually after about 3 weeks vs untreated controls. The essentials:
as §3

Series [12] has as its system Viola tricolor. The description is as above. The essentials:
as §3

Series [13] concerns Abutilon theophrasti. Briefly: Herbicidal action pre-emergence (greenhouse pot trial). To be noted: scored after about 3 weeks.
Excerpt: as §1, with “control plants. Tables B1 to B16 below show the efficacies of selected compounds of the general formula (I) according to tables I.1 to I.60 on various harmful plants and an application rate corresponding to 320 g/ha or lower that were obtained by the aforementioned trial method.” for “control plants.”

In series [14] the test system is Amaranthus retroflexus. The description is as above. To be noted: scored after about 3 weeks.
Excerpt: as §1, with “control plants. Tables B1 to B16 below show the efficacies of selected compounds of the general formula (I) according to tables I.1 to I.60 on various harmful plants and an application rate corresponding to 320 g/ha or lower that were obtained by the aforementioned trial method.” for “control plants.”

For series [15], the system named is Matricaria inodora. The series is described as above. To be noted: scored after about 3 weeks.
Excerpt: as §1, with “control plants. Tables B1 to B16 below show the efficacies of selected compounds of the general formula (I) according to tables I.1 to I.60 on various harmful plants and an application rate corresponding to 320 g/ha or lower that were obtained by the aforementioned trial method.” for “control plants.”

The test system of series [16] is Viola tricolor. Described as above. To be noted: scored after about 3 weeks.
Excerpt: as §1, with “control plants. Tables B1 to B16 below show the efficacies of selected compounds of the general formula (I) according to tables I.1 to I.60 on various harmful plants and an application rate corresponding to 320 g/ha or lower that were obtained by the aforementioned trial method.” for “control plants.”

The test system of series [17] is Setaria viridis. Briefly: Herbicidal action post-emergence (greenhouse pot trial). To be noted: application rate 80 g/ha, scored visually after about 3 weeks vs untreated controls. The essentials:
as §3

The test system of series [18] is Stellaria media. The series is described as above. To be noted: scored visually after about 3 weeks vs untreated controls. The method, boiled down:
as §3

Series [19] has as its system Avena fatua. As to the kind of experiment: Herbicidal action pre-emergence (greenhouse pot trial). To be noted: application rate 320 g/ha.
Excerpt: as §1, with “control plants. Tables B1 to B16 below show the efficacies of selected compounds of the general formula (I) according to tables I.1 to I.60 on various harmful plants and an application rate corresponding to 320 g/ha or lower that were obtained by the aforementioned trial method.” for “control plants.”

The test system of series [20] is Echinochloa crus-galli. The description is as above. To be noted: application rate 320 g/ha, scored after about 3 weeks.
Excerpt: as §1, with “control plants. Tables B1 to B16 below show the efficacies of selected compounds of the general formula (I) according to tables I.1 to I.60 on various harmful plants and an application rate corresponding to 320 g/ha or lower that were obtained by the aforementioned trial method.” for “control plants.”

The subject of series [21] is Lolium rigidum. The description is as above. To be noted: application rate 320 g/ha.
Excerpt: as §1, with “control plants. Tables B1 to B16 below show the efficacies of selected compounds of the general formula (I) according to tables I.1 to I.60 on various harmful plants and an application rate corresponding to 320 g/ha or lower that were obtained by the aforementioned trial method.” for “control plants.”

Series [22] deals with Veronica persica. The series is described as above. To be noted: application rate 320 g/ha.
Excerpt: as §1, with “control plants. Tables B1 to B16 below show the efficacies of selected compounds of the general formula (I) according to tables I.1 to I.60 on various harmful plants and an application rate corresponding to 320 g/ha or lower that were obtained by the aforementioned trial method.” for “control plants.”

For series [23], the system named is Pharbitis purpurea. The description is as above. To be noted: application rate 320 g/ha.
Excerpt: as §1, with “control plants. Tables B1 to B16 below show the efficacies of selected compounds of the general formula (I) according to tables I.1 to I.60 on various harmful plants and an application rate corresponding to 320 g/ha or lower that were obtained by the aforementioned trial method.” for “control plants.”

In series [24] the test system is Setaria viridis. Described as above. To be noted: application rate 320 g/ha, scored after about 3 weeks.
Excerpt: as §1, with “control plants. Tables B1 to B16 below show the efficacies of selected compounds of the general formula (I) according to tables I.1 to I.60 on various harmful plants and an application rate corresponding to 320 g/ha or lower that were obtained by the aforementioned trial method.” for “control plants.”

For series [25], the system named is Hordeum murinum. The description is as above. To be noted: application rate 320 g/ha.
Excerpt: as §1, with “control plants. Tables B1 to B16 below show the efficacies of selected compounds of the general formula (I) according to tables I.1 to I.60 on various harmful plants and an application rate corresponding to 320 g/ha or lower that were obtained by the aforementioned trial method.” for “control plants.”

For series [26], the system named is Alopecurus myosuroides. The series is described as above. To be noted: application rate 320 g/ha, scored after about 3 weeks.
Excerpt: as §1, with “control plants. Tables B1 to B16 below show the efficacies of selected compounds of the general formula (I) according to tables I.1 to I.60 on various harmful plants and an application rate corresponding to 320 g/ha or lower that were obtained by the aforementioned trial method.” for “control plants.”

The test system of series [27] is Stellaria media. The description is as above. To be noted: application rate 320 g/ha, scored after about 3 weeks.
Excerpt: as §1, with “control plants. Tables B1 to B16 below show the efficacies of selected compounds of the general formula (I) according to tables I.1 to I.60 on various harmful plants and an application rate corresponding to 320 g/ha or lower that were obtained by the aforementioned trial method.” for “control plants.”

Series [28] has as its system Echinochloa crus-galli. As to the kind of experiment: Herbicidal action post-emergence (greenhouse pot trial). To be noted: application rate 20 g/ha, scored visually after about 3 weeks vs untreated controls. The method, boiled down:
as §3

The structures appear in SMILES notation.

For `CC(Sc1cc(-n2c(=O)cc(C(F)(F)F)n(C)c2=O)c(F)cc1Cl)C(=O)NCC1CCOC1(C)C` (stereo not drawn) [I.1-227], the “Zea mays (Efficacy in %)” value in series [1] (application rate 80 g/ha) is listed as 0%; in series [5] (application rate 20 g/ha) it was 20%. Also, the “Glycine max (Efficacy in %)” value in series [2] turned out to be 20%. For the same compound, the “Oryza sativa (Efficacy in %)” value in series [3] worked out at 0%. Further, in series [4] (application rate 5 g/ha), the “Triticum aestivum (Efficacy in %)” value was 10%. The “Veronica persica (Efficacy in %)” value in [6] (application rate 20 g/ha) stood at 100%. The “Abutilon theophrasti (Efficacy in %)” value in series [7] (application rate 20 g/ha) and in [13] (application rate 80 g/ha) was 100% in each case. Besides, the “Amaranthus retroflexus (Efficacy in %)” value in series [8] (application rate 20 g/ha) and in series [14] (application rate 80 g/ha) was 100% in each case. The “Pharbitis purpurea (Efficacy in %)” value in [9] (application rate 20 g/ha) is given as 100%. In addition, in series [10] (application rate 20 g/ha), the “Polygonum convolvulus (Efficacy in %)” value was determined as 100%. Further, the “Matricaria inodora (Efficacy in %)” value in series [11] (application rate 20 g/ha) turned out to be 100%; in series [15] (application rate 80 g/ha) it was 90%. In addition, the “Viola tricolor (Efficacy in %)” value in series [12] (application rate 20 g/ha) and in series [16] (application rate 80 g/ha) was 80% each time.

For `C=CCN(C(=O)C(C)Sc1cc(-n2c(=O)cc(C(F)(F)F)n(C)c2=O)c(F)cc1Cl)C(C)COC` (stereo not drawn) [I.1-335], the figures for the “Zea mays (Efficacy in %)” value in series [1] (application rate 20 g/ha) and in series [5] (application rate 80 g/ha) were 20% and 10%, respectively. The “Oryza sativa (Efficacy in %)” value in series [3] stood at 10%. In addition, the “Triticum aestivum (Efficacy in %)” value in series [4] (application rate 80 g/ha) is reported as 20%. Further, the “Veronica persica (Efficacy in %)” value in series [6] (application rate 80 g/ha) and in series [22] was 100% in each case. Moreover, the “Abutilon theophrasti (Efficacy in %)” value in series [7] (application rate 80 g/ha) and in series [13] (application rate 320 g/ha) was 100% in each case. In addition, the “Amaranthus retroflexus (Efficacy in %)” value in series [8] (application rate 80 g/ha) and in series [14] (application rate 320 g/ha) was 100% throughout. Also, the “Pharbitis purpurea (Efficacy in %)” value in series [9] (application rate 80 g/ha) and in series [23] was 100% each time. For the same compound, the “Polygonum convolvulus (Efficacy in %)” value in series [10] (application rate 80 g/ha) came out at 100%. Moreover, the “Setaria viridis (Efficacy in %)” value in [17] and in series [24] was 100% throughout. Moreover, the “Matricaria inodora (Efficacy in %)” value in series [11] (application rate 80 g/ha) and in series [15] (application rate 320 g/ha) was 100% in each case. Also, the “Viola tricolor (Efficacy in %)” value in series [12] (application rate 80 g/ha) and in series [16] (application rate 320 g/ha) was 100% each time. For the same compound, the “Stellaria media (Efficacy in %)” value in [18] (application rate 80 g/ha) and in series [27] was 100% in each case. Further, the “Avena fatua (Efficacy in %)” value in series [19] was 100%. Moreover, the “Echinochloa crus-galli (Efficacy in %)” value in series [20] was 100%. Besides, the “Lolium rigidum (Efficacy in %)” value in series [21] worked out at 100%. Besides, in [25], the “Hordeum murinum (Efficacy in %)” value was 90%. For the same compound, the “Alopecurus myosuroides (Efficacy in %)” value in series [26] was determined as 90%.

On to `CCC(Sc1cc(-n2c(=O)c(C)c(C(F)(F)F)n(C)c2=O)c(F)cc1Cl)C(=O)OCC1CCOC1` (stereo not drawn) [I.12-72, Tetrahydrofuran-3-ylmethyl 2-({2-chloro-4-fluoro-5-[3,5-dimethyl-2,6-dioxo-4-(trifluoromethyl)-3,6-dihydropyrimidin-1(2H)-yl]phenyl}sulfanyl)butanoate], for which the “Glycine max (Efficacy in %)” value in series [2] amounted to 20%. For the same compound, the “Oryza sativa (Efficacy in %)” value in series [3] was 20%. Moreover, the “Triticum aestivum (Efficacy in %)” value in series [4] (application rate 20 g/ha) worked out at 0%. In series [5] (application rate 5 g/ha), the “Zea mays (Efficacy in %)” value was found to be 0%. The “Echinochloa crus-galli (Efficacy in %)” value in series [28] was found to be 100%. Also, in [6] (application rate 20 g/ha), the “Veronica persica (Efficacy in %)” value was 100%. In series [7] (application rate 20 g/ha), the “Abutilon theophrasti (Efficacy in %)” value came to 100%. Besides, the “Amaranthus retroflexus (Efficacy in %)” value in series [8] (application rate 20 g/ha) is 100%. Besides, the “Polygonum convolvulus (Efficacy in %)” value in series [10] (application rate 20 g/ha) is recorded as 100%. Further, the “Matricaria inodora (Efficacy in %)” value in series [11] (application rate 20 g/ha) is listed as 100%. In [12] (application rate 20 g/ha), the “Viola tricolor (Efficacy in %)” value was found to be 100%. Moreover, in [18] (application rate 20 g/ha), the “Stellaria media (Efficacy in %)” value turned out to be 100%.
